The assay deals with human APJ receptor (Homo sapiens (Human), UniProt P35414). Briefly: [35S]GTPγS binding assay on membranes from CHO cells stably expressing human APJ receptor. It counts as biochemical. The settings on record: means of several independent experiments, read-out: Activity hAPJ SPA EC50 IP. Here is the method: The human APJ receptor was cloned by polymerase chain reaction and the gene encoding the receptor was subcloned in pFLAG-CMV™-3 expression vector (Sigma, Saint Louis, Mo. USA) in-house at Amgen. A GTPγS binding assay was performed on membranes prepared from CHO cells stably expressing human APJ receptor. The optimum experimental conditions for the concentrations of GDP, MgCl2, and NaCl in the assay buffer were initially determined. […] Incubation was at RT for 90 min and the microplate was read using a ViewLux™ ultra HTS Microplate Imager (PerkinElmer, Inc.). All the results presented are means of several independent experiments and analyzed by non-linear regression methods using the commercially available program Prism (GraphPad, San Diego, Calif.) providing the EC50 values detailed in Table 28.
Chain of human APJ receptor (P35414 whole entry): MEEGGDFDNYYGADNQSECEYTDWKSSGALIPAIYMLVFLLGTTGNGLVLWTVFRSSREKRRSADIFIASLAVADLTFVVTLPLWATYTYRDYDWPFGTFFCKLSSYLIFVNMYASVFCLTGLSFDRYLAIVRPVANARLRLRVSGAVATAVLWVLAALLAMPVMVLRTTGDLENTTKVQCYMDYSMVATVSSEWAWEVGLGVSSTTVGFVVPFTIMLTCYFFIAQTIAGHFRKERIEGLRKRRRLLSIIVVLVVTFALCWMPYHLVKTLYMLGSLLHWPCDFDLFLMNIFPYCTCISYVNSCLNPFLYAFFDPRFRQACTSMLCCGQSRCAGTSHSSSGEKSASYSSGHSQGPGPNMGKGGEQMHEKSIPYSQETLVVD

Consider `COc1ncnc(OC)c1-n1c(NS(=O)(=O)CCc2ccc(Cl)cc2)nnc1-c1ccccc1` [Example 19.0, 2-(4-chlorophenyl)-N-(4-(4,6-dimethoxy-5-pyrimidinyl)-5-phenyl-4H-1,2,4-triazol-3-yl)ethanesulfonamide], for which the EC50 (as a rule, the concentration at which the effect is half-maximal) was 40 nM.

In the case of `COc1cccc(OC)c1-n1c(NS(=O)(=O)[C@@H](C)[C@H](OC)c2ncc(C)cn2)nnc1-c1cc(C(F)(F)F)cc(C(F)(F)F)c1` [Example 68.0, (1R,2S)-N-(5-(3,5-bis(trifluoromethyl)phenyl)-4-(2,6-dimethoxyphenyl)-4H-1,2,4-triazol-3-yl)-1-methoxy-1-(5-methyl-2-pyrimidinyl)-2-propanesulfonamide], the EC50 was 4.7 nM.

As for `COc1ncnc(OC)c1-n1c(NS(=O)(=O)[C@@H](C)[C@H](OC)c2ncc(C)cn2)nnc1-c1ccccc1` [Example 4.0, (1R,2S)-N-(4-(4,6-dimethoxypyrimidin-5-yl)-5-phenyl-4H-1,2,4-triazol-3-yl)-1-methoxy-1-(5-methylpyrimidin-2-yl)propane-2-sulfonamide], the EC50 is 2.9 nM.

Regarding `COC[C@@H](C)n1c(NS(=O)(=O)[C@@H](C)[C@H](OC)c2ncc(Cl)cn2)nnc1-c1ccccc1` [Example 124.0], the EC50 stood at 57 nM.

Turning to `COc1cccc(OC)c1-n1c(NS(=O)(=O)[C@H]2C[C@@H](O)CN(c3ncc(F)cn3)C2)nnc1-c1ccccc1` (single isomer, unassigned) [Example 57.0, (3R,5S)-N-(4-(2,6-dimethoxyphenyl)-5-phenyl-4H-1,2,4-triazol-3-yl)-1-(5-fluoro-2-pyrimidinyl)-5-hydroxy-3-piperidinesulfonamide or (3S,5R)-N-(4-(2,6-dimethoxyphenyl)-5-phenyl-4H-1,2,4-triazol-3-yl)-1-(5-fluoro-2-pyrimidinyl)-5-hydroxy-3-piperidinesulfonamide], the EC50 turned out to be 1.4 nM.

`COc1cccc(OC)c1-n1c(NS(=O)(=O)[C@@H](C)[C@H](C)c2ncc(C)cn2)nnc1-c1ccccc1` [Example 15.0, (2S,3R)-N-(4-(2,6-dimethoxyphenyl)-5-phenyl-4H-1,2,4-triazol-3-yl)-3-(5-methyl-2-pyrimidinyl)-2-butanesulfonamide]: the EC50 came out at 0.89 nM.

With `COc1cccc(-c2nnc(NS(=O)(=O)[C@@H](C)[C@H](OC)c3ncc(Cl)cn3)n2[C@H]2CCCOC2)c1` [Example 119.0], the EC50 was determined as 22 nM.

Take `COCC1(n2c(NS(=O)(=O)[C@@H](C)[C@H](OC)c3ncc(Cl)cn3)nnc2-c2ccccc2)CC1` [Example 97.0, (1R,2S)-1-(5-Chloro-2-pyrimidinyl)-1-methoxy-N-(4-(1-(methoxymethyl)cyclopropyl)-5-phenyl-4H-1,2,4-triazol-3-yl)-2-propanesulfonamide]: the EC50 came to 1 nM.

For the molecule `COc1ncnc(OC)c1-n1c(NS(=O)(=O)[C@H]2CCCN(c3ncc(F)cn3)C2)nnc1-c1ccccc1` (single isomer, unassigned) [Example 27.0, (3S)-N-(4-(4,6-dimethoxy-5-pyrimidinyl)-5-phenyl-4H-1,2,4-triazol-3-yl)-1-(5-fluoro-2-pyrimidinyl)-3-piperidinesulfonamide or (3R)-N-(4-(4,6-dimethoxy-5-pyrimidinyl)-5-phenyl-4H-1,2,4-triazol-3-yl)-1-(5-fluoro-2-pyrimidinyl)-3-piperidinesulfonamide], the EC50 was determined as 32 nM.

As for `COc1cccc(OC)c1-n1c(NS(=O)(=O)[C@@H](C)Cc2ncc(F)cn2)nnc1-c1ccccc1` (single isomer, unassigned) [Example 8.0, (2S)-N-(4-(2,6-dimethoxyphenyl)-5-phenyl-4H-1,2,4-triazol-3-yl)-1-(5-fluoro-2-pyrimidinyl)-2-propanesulfonamide or (2R)-N-(4-(2,6-dimethoxyphenyl)-5-phenyl-4H-1,2,4-triazol-3-yl)-1-(5-fluoro-2-pyrimidinyl)-2-propanesulfonamide], the EC50 stood at 15 nM.

Regarding `COc1cccc(OC)c1-n1c(NS(=O)(=O)[C@H]2CCCN(c3ncc(F)cn3)C2)nnc1-c1ccccc1` (single isomer, unassigned) [Example 22.0, (3S)—N-(4-(2,6-dimethoxyphenyl)-5-phenyl-4H-1,2,4-triazol-3-yl)-1-(5-fluoro-2-pyrimidinyl)-3-piperidinesulfonamide or (3R)—N-(4-(2,6-dimethoxyphenyl)-5-phenyl-4H-1,2,4-triazol-3-yl)-1-(5-fluoro-2-pyrimidinyl)-3-piperidinesulfonamide], the EC50 was determined as 170 nM.

For `COc1ncnc(OC)c1-n1c(NS(=O)(=O)[C@@H](C)[C@H](OC)c2ncc(C)cn2)nnc1-c1cccc2cn(C)nc12` [Example 93.0], the EC50 was 41 nM.

As to `COc1ncnc(OC)c1-n1c(NS(=O)(=O)[C@H]2CCCN(c3ncc(Cl)cn3)C2)nnc1-c1ccccc1` (single isomer, unassigned) [Example 32.0, (3S)-1-(5-chloro-2-pyrimidinyl)-N-(4-(4,6-dimethoxy-5-pyrimidinyl)-5-phenyl-4H-1,2,4-triazol-3-yl)-3-piperidinesulfonamide or (3R)-1-(5-chloro-2-pyrimidinyl)-N-(4-(4,6-dimethoxy-5-pyrimidinyl)-5-phenyl-4H-1,2,4-triazol-3-yl)-3-piperidinesulfonamide], the EC50 amounted to 17 nM.

`COc1ncnc(OC)c1-n1c(NS(=O)(=O)[C@H]2CCCN(c3ncc(Cl)cn3)C2)nnc1-c1ccccc1` (single isomer, unassigned) [Example 31.0, (3S)-1-(5-chloro-2-pyrimidinyl)-N-(4-(4,6-dimethoxy-5-pyrimidinyl)-5-phenyl-4H-1,2,4-triazol-3-yl)-3-piperidinesulfonamide or (3R)-1-(5-chloro-2-pyrimidinyl)-N-(4-(4,6-dimethoxy-5-pyrimidinyl)-5-phenyl-4H-1,2,4-triazol-3-yl)-3-piperidinesulfonamide]: the EC50 was 340 nM.

Consider `COc1ncnc(OC)c1-n1c(NS(=O)(=O)[C@@H](C)[C@H](O)c2ncc(C)cn2)nnc1-c1ccccc1` [Example 20.0, (1R,2S)-N-(4-(4,6-dimethoxy-5-pyrimidinyl)-5-phenyl-4H-1,2,4-triazol-3-yl)-1-hydroxy-1-(5-methyl-2-pyrimidinyl)-2-propanesulfonamide], for which the EC50 is 5.3 nM.

In the case of `COc1cccc(OC)c1-n1c(NS(=O)(=O)[C@H]2CCCN(c3ncc(Cl)cn3)C2)nnc1-c1ccccc1` (single isomer, unassigned) [Example 34.0, (S)-1-(5-Chloropyrimidin-2-yl)-N-(4-(2,6-dimethoxyphenyl)-5-phenyl-4H-1,2,4-triazol-3-yl)piperidine-3-sulfonamide or (R)-1-(5-chloropyrimidin-2-yl)-N-(4-(2,6-dimethoxyphenyl)-5-phenyl-4H-1,2,4-triazol-3-yl)piperidine-3-sulfonamide], the EC50 was determined as 28 nM.

For `COc1ncnc(OC)c1-n1c(NS(=O)(=O)[C@@H](C)Cc2ncc(F)cn2)nnc1-c1ccccc1` (single isomer, unassigned) [Example 11.0, (2S)-N-(4-(4,6-dimethoxy-5-pyrimidinyl)-5-phenyl-4H-1,2,4-triazol-3-yl)-1-(5-fluoro-2-pyrimidinyl)-2-propanesulfonamide or (2R)-N-(4-(4,6-dimethoxy-5-pyrimidinyl)-5-phenyl-4H-1,2,4-triazol-3-yl)-1-(5-fluoro-2-pyrimidinyl)-2-propanesulfonamide], the EC50 was 6.4 nM.

For the molecule `COCC1(n2c(NS(=O)(=O)[C@@H](C)[C@H](OC)c3ncc(Cl)cn3)nnc2-c2cccc3nn(C)cc23)CCC1` [Example 117.0], the EC50 was determined as 340 nM.

Take `Cc1cnc([C@@H](O)[C@H](C)S(=O)(=O)Nc2nnc(-c3ccccc3)n2-c2c(F)cccc2F)nc1` [Example 45.0]: the EC50 is 34 nM.

For `Cc1cnc([C@@H](O[Si](C)(C)C(C)(C)C)[C@H](C)S(=O)(=O)Nc2nnc(-c3ccccc3)n2-c2c(F)cccc2F)nc1` [Example 44.0, (1R,2S)-1-((tert-butyl(dimethyl)silyl)oxy)-N-(4-(2,6-difluorophenyl)-5-phenyl-4H-1,2,4-triazol-3-yl)-1-(5-methyl-2-pyrimidinyl)-2-propanesulfonamide], the EC50 came out at 150 nM.

On to `CO[C@H]1CCC[C@@H](OC)[C@@H]1n1c(NS(=O)(=O)[C@@H](C)[C@H](C)c2ncc(C)cn2)nnc1-c1ccccc1` [Example 33.0, (2S,3R)—N-(4-((1r,2R,6S)-2,6-Dimethoxycyclohexyl)-5-phenyl-4H-1,2,4-triazol-3-yl)-3-(5-methyl-2-pyrimidinyl)-2-butanesulfonamide], for which the EC50 was 230 nM.

Regarding `CCN(CC)c1ccc(-c2nnc(NS(=O)(=O)[C@@H](C)[C@H](OC)c3ncc(C)cn3)n2-c2c(OC)cccc2OC)cc1` [Example 83.0, (1R,2S)-N-(5-(4-(diethylamino)phenyl)-4-(2,6-dimethoxyphenyl)-4H-1,2,4-triazol-3-yl)-1-methoxy-1-(5-methyl-2-pyrimidinyl)-2-propanesulfonamide], the EC50 is 89 nM.

Take `C[C@H](c1ncc(Cl)cn1)[C@H](C)S(=O)(=O)Nc1nnc(-c2ccccc2)n1-c1c(F)cccc1F` [Example 46.0, (2S,3R)-3-(5-chloro-2-pyrimidinyl)-N-(4-(2,6-difluorophenyl)-5-phenyl-4H-1,2,4-triazol-3-yl)-2-butanesulfonamide]: the EC50 stood at 1.7 nM.

On to `CO[C@H](c1ncc(Cl)cn1)[C@H](C)S(=O)(=O)Nc1nnc(-c2ccccc2)n1C1CCOCC1` [Example 62.0, (1R,2S)-1-(5-chloro-2-pyrimidinyl)-1-methoxy-N-(5-phenyl-4-(tetrahydro-2H-pyran-4-yl)-4H-1,2,4-triazol-3-yl)-2-propanesulfonamide], for which the EC50 came out at 74 nM.

With `COCC1(n2c(NS(=O)(=O)[C@@H](C)[C@H](OC)c3ncc(Cl)cn3)nnc2-c2cccc3nn(C)cc23)CC1` [Example 114.0], the EC50 was 53 nM.

The record behind these values is patent publication US10906890B2, “Triazole phenyl compounds as agonists of the APJ receptor” (AMGEN INC., priority 2016, dated 2021).
